Measured values reported in patent US11548850B2, “Development of a cofilin inhibitor for the treatment of hemorrhagic brain injury-induced neuroinflammation” (The University of Toledo, priority 2019, dated 2023).
Entries after “also recorded” stand apart in the source; their conditions may differ.

Key:
cofilin [1] = assay: WB of cofilin in thrombin-challenged HMC3 cells; type: cell-based, human; settings: thrombin 100 U/ml
Description: (§1) FIG. 11: SZ-3 reduces inflammation through NF-κB mechanism. Cultured HMC3 cells were challenged with thrombin 100 U/ml and after 3 h were treated with different concentrations of SZ-3 (10 and 5 μM). Cells were harvested for WB analysis after 24 h.
(§2) WB was used to assay the expression levels of cofilin, phosphocofilin, and NF-κB. […] Without wishing to be bound by theory, the role of phosphocofilin is not fully understood, but it is believed that it is decreased in stress conditions and its restoration is beneficial.
(§3) HMC3 cells were cultured in DMEM/F12 medium supplemented with 5% horse serum (HS), 10% fetal bovine serum (FBS), and 1% penicillin/streptomycin. Cells were stimulated with 100 U/ml thrombin from bovine plasma (Sigma) and treated without (vehicle) or with different concentrations of SZ-3.
Cells were harvested and washed with ice-cold lysis buffer (250 mM sucrose, 1.5 mM MgCl2, 10 mM KCl, 20 mM HEPES 7.6 pH, 1 mM of dithiothreitol, 1 mM phenylmethylsulfonyl fluoride, 50 mM NaF, 10 mM sodium orthovanadate, 20 mM sodium pyrophosphate, and protease inhibitors) for 15 min then supplemented with 5% of Nonidet P-40 for 2 min. Cytosolic fraction was collected from the supernatant after centrifugation at 14,000 g for 10 min. Bradford reagent (Bio-Rad Laboratories) was used to determine the protein concentrations, and equal amounts of samples were loaded onto 10-15% SDS-polyacrylamide gels, separated by electrophoresis, and transferred to PVDF membranes. Membranes were blocked and incubated with primary antibodies; cofilin, phosphocofilin, and NF-kB (Cell Signaling Technology) at 4° C. overnight. Membranes were incubated for 1 h at room temperature with horseradish peroxidase-conjugated secondary antibody (1:5000; Jackson ImmunoResearch) after washing. Glyceraldehyde 3-phosphate dehydrogenase (GAPDH) or beta-actin were used as the loading control, and band intensity analyzed using Bio-Rad Chemi-Doc XRS Image Lab Software.

NF-κB = assay: WB of NF-κB in thrombin-challenged HMC3 cells; type: cell-based, human; settings: thrombin 100 U/ml, SZ-3 10, 5 μM after 3 h, WB after 24 h
Description: as §1, §2, §3
(§4) Cells were harvested and washed with ice-cold lysis buffer (250 mM sucrose, 1.5 mM MgCl2, 10 mM KCl, 20 mM HEPES 7.6 pH, 1 mM of dithiothreitol, 1 mM phenylmethylsulfonyl fluoride, 50 mM NaF, 10 mM sodium orthovanadate, 20 mM sodium pyrophosphate, and protease inhibitors) for 15 min then supplemented with 5% of Nonidet P-40 for 2 min. […] Glyceraldehyde 3-phosphate dehydrogenase (GAPDH) or beta-actin were used as the loading control, and band intensity analyzed using Bio-Rad Chemi-Doc XRS Image Lab Software.

phosphocofilin = assay: WB of phosphocofilin in thrombin-challenged HMC3 cells; type: cell-based, human; settings: thrombin 100 U/ml, SZ-3 10, 5 μM after 3 h, WB after 24 h
Description: as §1, §2, §3, §4

HMC3 cells = assay: Thrombin-induced cell death in HMC3 cells; type: cell-based, human; settings: thrombin 100 U/ml, SZ-3 10 μM
Description: as §1
All types of cells used in these examples were assayed for viability and proliferation after 24-72 h using the MTT or CellTiter-Glo Luminescent assay Promega (Madison, Wis.). Cells after treatment were incubated with MTT reagent for 3 h in 5% CO2 at 37° C. The medium was replaced with DMSO to dissolve formazan crystals. Absorbance was read at 570 nm to quantify cell viability. CellTiter-Glo reagents were used in some experiments by adding equal amounts of reagent to the amount of medium containing cells for a 96-well plate. Contents were mixed for 2 minutes then incubated the plate for 10 minutes at room temperature to stabilize luminescent signal.

mice with hemorrhage = assay: Experimental hemorrhage in mice by collagenase injection into the striatum; type: in vivo
Description: Mice were subjected to experimental hemorrhage by injecting collagenase into the striatum. After 3 h of collagenase injection, mice were treated with two concentrations of SZ-3 (1 and 10 mg/kg, i.p.) followed by 12 hourly injections until day 3. Mice were evaluated for baseline rotarod and grip strength 24 h prior and after hemorrhage and then after every 24 hs for three days. N=12 per group. FIG. 12A depicts a timeline of the experiment, and photographs of the mice.
The top column is Sham, the second column is vehicle, the third column is SZ-3 (1 mg/kg), and the fourth column is SZ-3 (10 mg/kg).
Finally, it was desired to elucidate if treatment with SZ-3 can mitigate the hemorrhage induced behavioral deficits. Hemorrhage was induced in mice, and the mice were then treated with SZ-3. Mice were subjected to experimental hemorrhage by injecting collagenase into the mice striatum. Collagenase model simulates the hemorrhage by inducing vessel damage resulting in localized hematomas. This model is widely used in hemorrhagic stroke research.
Mice were treated with two concentrations of SZ-3 (1 and 10 mg/kg, i.p;) immediately after 3 h of hemorrhage and then after every 12 h for 3 days (FIG. 12A). […] Normally, the mice are substantially paralyzed a short time after the stroke.

[2] = Solubility of SZ-3 in the mouse study; type: physicochemical
cofilin [3] = target: cofilin (Homo sapiens, UniProt P23528); assay: In vitro F-actin depolymerization assay; type: biochemical; parameters: purchased Cytoskeleton, Inc; settings: SZ-3 5 μM, cofilin 0.25 μM, 30 min, rabbit muscle actin, SiR-actin probe
cofilin (Homo sapiens, UniProt P23528), sequence (P23528 whole entry): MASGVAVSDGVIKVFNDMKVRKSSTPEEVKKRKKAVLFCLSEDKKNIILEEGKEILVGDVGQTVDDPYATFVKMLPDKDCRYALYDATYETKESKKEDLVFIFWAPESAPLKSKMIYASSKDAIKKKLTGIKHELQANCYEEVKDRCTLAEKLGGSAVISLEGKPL
Description: The inhibitory effect of SZ-3 was tested using an F-actin depolymerization assay. Rabbit muscle actin (Cytoskeleton, Inc.) was reconstituted with general actin and incubated on ice for 30 min to depolymerize any existing actin oligomers. Cofilin (Cytoskeleton, Inc.) at 0.25 μM and SZ-3 (5 μM) were added together to the corresponding vials and incubated for 30 min to ensure cofilin depolymerization and efficacy of the SZ-3. SiR-actin probe (Cytoskeleton, Inc.) was added at 50 nM and incubated for 1 h to visualize actin filaments. Finally, 5-10 μl of each group was added to a slide and imaged with fluorescent microscope at 652 nm.
Cofilin inhibition with SZ-3 was tested using an f-actin depolymerization high-throughput screening assay.
SZ-3 inhibitory effect on cofilin was tested using F-actin depolymerization assay. Briefly, rabbit muscle actin (Cytoskeleton, Inc.) was reconstituted with general actin buffer to 40 μM (stock) and incubated on ice for 30 min to depolymerize any existing actin oligomers. Next, actin stock solution was further diluted to a 1 μM working solution and then polymerized into filaments with the addition of 1/10 th the volume of actin polymerization buffer (Cytoskeleton, Inc.). The mix was incubated at room temperature for 1 h to ensure optimum polymerization. […]

In the case of `CC(C)(C)c1ccc(O)c(CN(Cc2cc(C(C)(C)C)ccc2O)C2CCC(NC(N)=O)CC2)c1` (stereo not shown) [SZ-3, 4-{bis[(5-tert-butyl-2-hydroxyphenyl)methyl]amino}cyclohexyl urea], the cofilin expression (cofilin [1]; SZ-3 5 μM (FIG. 11 legend)) is reported as “reduced by treatment with 5 μM of SZ-3”, the cofilin level (cofilin [1]; SZ-3 10 μM) is reported as “significant decrease in cofilin level was observed only in 10 μM” and the cofilin expression level (cofilin [1]; SZ-3 10, 5 μM after 3 h, WB after 24 h) is reported as “significantly reduced”. The NF-κB expression level (NF-κB) was “significantly reduced”, the phosphocofilin expression level (phosphocofilin) was “reversed the expression levels” and the “cell death induced by thrombin” value (HMC3 cells) was “significantly restored cell death induced by thrombin”. The “cell death after experimental ICH” value (mice with hemorrhage; FIG. 13, SZ-3 1 mg/kg and 10 mg/kg versus vehicle, fluorescence) was “barely any cell death; also recorded: reduces cell death after experimental ICH”, the “motor function assessed by rotarod” value (mice with hemorrhage; SZ-3 1 and 10 mg/kg i.p. 3 h after hemorrhage then every 12 h for 3 days, day 2 and 3) was “significantly reversed” and the grip strength (mice with hemorrhage; SZ-3 1 and 10 mg/kg i.p., after hemorrhage) was “showed enhanced grip strength”. The “lesions in the mice” value (mice with hemorrhage; mice treated with SZ-3) was “no lesions formed”, the “grip of sham mice” value (mice with hemorrhage; sham mice, no induced hemorrhage) was “improved the grip of the mice even without hemorrhage” and the solubility [2] was “no solubility issues”. For the same molecule, the “severing and depolymerizing activity of cofilin on F-actin” value (cofilin [3]) was “prevented the severing and depolymerizing activity of cofilin; also recorded: binds to cofilin”.
